Results published in patent US3959272A, “Aminoalkyl esters of 2-anilino-nicotinic acids” (Societe Anonyme dite: Hexachime, priority 1972, dated 1976).

Columns and labels:
Solubility in water = format: physicochemical
[1] = Chronic toxicity in beagle dogs, 3 months; format: in vivo, beagle dog; settings: 150 mg/kg each day for 3 months
Description: Six beagle dogs (3 male and 3 female) received each day for 3 months 150 mg/kg of the product of Example 1.

[2] = Analgesic activity: Randall and Selitto's test (beer yeast paw, pain threshold); format: in vivo, rat
Description: This activity was measured by Siegmund's test in mice and Randall and Selitto's test in the rat. Groups of ten male rats each weight 120 to 140 g received by subcutaneous plantar injection 0.05 ml of a 5% aqueous suspension of beer yeast. 2 Hours after this treatment they received the compound under test orally and 1 hour after administration of this compound the paw which had been injected and the contralateral paw were subjected to increasing pressure. The appearance of the pain threshold was noted.

[3] = Stimulation of dental pulp in the rabbit; format: in vivo
Description: 24 Hours before the test, each incisor of the rabbit is drilled 1 mm below the gum to a depth of about 1 mm. The next day, the animals are placed in restraining boxes and stimulating electrodes are placed in position. The threshold of reaction to the electrical stimulation (at 30 Hz; 10 ms; for 1 s) is measured by the munching reaction of the rabbits. The product of Example 1 was administered intravenously and its effect on the pain threshold was measured at regular intervals after treatment.

[4] = Action on the activity of noradrenaline in dogs; settings: dog, in vivo
[5] = dog, in vivo
Description: The product of Example 1 was perfused in the dog at a dosage of 50 mg/minute by the saphena vein. Cardiac arrest was produced by a dose of 344 mg/kg.

[6] = Cardiovascular parameters: intact dogs; format: in vivo, dog; settings: for Average pressure / Diastolic pressure / Systolic pressure: in % (unit assumed)
Description: Unsorted dogs of either sex weighing 8 to 17 kg and anaesthetised by chloralose in solution in polyethylene glycol 300 (0.12 g/kg) were respirated artificially using a Bird pump (Mark 7). The carotid arterial blood pressure was measured with the aid of a Statham P 23 dB device. The left ventricular pressure is measured with the same device connected by a supple catheter introduced by the femoral artery and pushed into the left ventricle. The cardiac rhythm is measured from the signals of the carotid pressure. The myocardial contractile force is measured using a strain gauge (Apelab) attached to the right ventricle. All the parameters are recorded on a Beckman polygraph. Two series of dogs are used to test the cardiovascular activity: 5 dogs atropinised (1 mg/kg intravenously) and bivagotomised; and a second series of 4 intact dogs. The product of Example 1 was injected through the saphena vein and the duration of the injection was 2 minutes.
The following Table IX gives the variations of the parameters recorded and their significance according to the t test (* p<0.05; ** p<0.01; *** p<0.001).

[7] = Anti-inflammatory activity: oedema provoked by carragenin in the rat; format: in vivo; settings: po, read-out: percentage inhibition of oedema
Description: The method used was as follows.
The anti-inflammatory activity was measured on oedema provoked by carragenin in the rat. Groups of six male rats each weighing 120 to 130 g received the compound under test orally in suspension in "tween 80", half the dose being given 2 hours before and the other half 1/2 hour before the subcutaneous plantar injection of 0.05 ml of a 1 % carragenin solution. The volume of the injected paw was measured by plethysmography at regular intervals. Table 1 below gives the percentage inhibition of the oedema with reference to untreated controls.

[8] = Potentiation of stereotypes by amphetamine; format: in vivo, rat; settings: 5 mg/kg dexamphetamine sulphate
Description: The compound under test was administered to groups of 5 rats intraperitoneally. Thirty minutes afterwards, 5 mg/kg of dexamphetamine sulphate was injected intraperitoneally. The duration of the phenomenon is counted at regular intervals from 0 to 4 and the counts are added up.

[9] = 16 mg/kg intravenously, 4 dogs, ** p<0.01

Cc1cccc(Nc2ncccc2C(=O)OCCN2CCOCC2)c1C [Example 1, β-Morpholino ethyl nixylate]
solubility in water (Solubility in water; dihydrochloride): very soluble
solubility in water (Solubility in water; monohydrochloride): sparingly soluable in water
biochemical and hematological characteristics [1]: No modification attributable to the treatment was observed
histological examination of the organs [1]: normal
mortality [1]: No mortality was observed
weights of the dogs [1]: remained normal
percentage increase of pain threshold ([2]; with yeast, 8 mg/kg orally): 15%
percentage increase of pain threshold ([2]; with yeast, 16 mg/kg orally): 68%
percentage increase of pain threshold ([2]; with yeast, 32 mg/kg orally): 90%
percentage increase of pain threshold ([2]; with yeast, 64 mg/kg orally): 83%
percentage increase of pain threshold ([2]; with yeast, 128 mg/kg orally): 120%
percentage increase of pain threshold ([2]; with yeast, 256 mg/kg orally): 161%
percentage increase of pain threshold ([2]; without yeast, 8 mg/kg orally): 37%
percentage increase of pain threshold ([2]; without yeast, 16 mg/kg orally): 29%
percentage increase of pain threshold ([2]; without yeast, 32 mg/kg orally): 51%
percentage increase of pain threshold ([2]; without yeast, 64 mg/kg orally): 72%
percentage increase of pain threshold ([2]; without yeast, 128 mg/kg orally): 101%
percentage increase of pain threshold ([2]; without yeast, 256 mg/kg orally): 126%
Threshold, % (increase) ([3]; 2.5 mg/kg intravenously, 1h30): 59%
Threshold in volts ([3]; 2.5 mg/kg intravenously, 1h30, pre-treatment 2.26): 3.61 volts
Threshold, % (increase) ([3]; 2.5 mg/kg intravenously, 2h30): 47%
Threshold in volts ([3]; 2.5 mg/kg intravenously, 2h30, pre-treatment 2.26): 3.33 volts
Threshold, % (increase) ([3]; 2.5 mg/kg intravenously, 15 min): 38%
Threshold in volts ([3]; 2.5 mg/kg intravenously, 15 min, pre-treatment 2.26): 3.12 volts
Threshold, % (increase) ([3]; 2.5 mg/kg intravenously, 30 min): 33%
Threshold in volts ([3]; 2.5 mg/kg intravenously, 30 min, pre-treatment 2.26): 3.02 volts
Threshold, % (increase) ([3]; 2.5 mg/kg intravenously, 1 h): 41%
Threshold in volts ([3]; 2.5 mg/kg intravenously, 1 h, pre-treatment 2.26): 3.20 volts
Threshold, % (increase) ([3]; 2.5 mg/kg intravenously, 2 h): 56%
Threshold in volts ([3]; 2.5 mg/kg intravenously, 2 h, pre-treatment 2.26): 3.54 volts
Threshold, % (increase) ([3]; 5 mg/kg intravenously, 1h30): 59%
Threshold in volts ([3]; 5 mg/kg intravenously, 1h30, pre-treatment 2.54): 4.05 volts
Threshold, % (increase) ([3]; 5 mg/kg intravenously, 2h30): 15%
Threshold in volts ([3]; 5 mg/kg intravenously, 2h30, pre-treatment 2.54): 2.94 volts
Threshold, % (increase) ([3]; 5 mg/kg intravenously, 15 min): 95%
Threshold in volts ([3]; 5 mg/kg intravenously, 15 min, pre-treatment 2.54): 4.97 volts
Threshold, % (increase) ([3]; 5 mg/kg intravenously, 30 min): 88%
Threshold in volts ([3]; 5 mg/kg intravenously, 30 min, pre-treatment 2.54): 4.80 volts
Threshold, % (increase) ([3]; 5 mg/kg intravenously, 1 h): 58%
Threshold in volts ([3]; 5 mg/kg intravenously, 1 h, pre-treatment 2.54): 4.02 volts
Threshold, % (increase) ([3]; 5 mg/kg intravenously, 2 h): 30%
Threshold in volts ([3]; 5 mg/kg intravenously, 2 h, pre-treatment 2.54): 3.31 volts
Threshold, % (increase) ([3]; 10 mg/kg intravenously, 1h30): 52%
Threshold in volts ([3]; 10 mg/kg intravenously, 1h30, pre-treatment 2.65): 4.05 volts
Threshold, % (increase) ([3]; 10 mg/kg intravenously, 2h30): 24%
Threshold in volts ([3]; 10 mg/kg intravenously, 2h30, pre-treatment 2.65): 3.29 volts
Threshold, % (increase) ([3]; 10 mg/kg intravenously, 15 min): 74%
Threshold in volts ([3]; 10 mg/kg intravenously, 15 min, pre-treatment 2.65): 4.62 volts
Threshold, % (increase) ([3]; 10 mg/kg intravenously, 30 min): 118%
Threshold in volts ([3]; 10 mg/kg intravenously, 30 min, pre-treatment 2.65): 5.80 volts
Threshold, % (increase) ([3]; 10 mg/kg intravenously, 1 h): 69%
Threshold in volts ([3]; 10 mg/kg intravenously, 1 h, pre-treatment 2.65): 4.49 volts
Threshold, % (increase) ([3]; 10 mg/kg intravenously, 2 h): 40%
Threshold in volts ([3]; 10 mg/kg intravenously, 2 h, pre-treatment 2.65): 3.72 volts
action on the activity of noradrenaline [4]: without action on the activity of noradrenaline
dose producing cardiac arrest [5]: 344 mg/kg
Alteration in cardiac rhythm ([6]; 1 mg/kg intravenously, 4 dogs): -1 beats per minute
Duration of the hypotension ([6]; 1 mg/kg intravenously, 4 dogs): 30
Average pressure ([6]; 1 mg/kg intravenously, 4 dogs): -9±5.2
Diastolic pressure ([6]; 1 mg/kg intravenously, 4 dogs): -10±5.7
Systolic pressure ([6]; 1 mg/kg intravenously, 4 dogs): -8±4.6
Alteration in cardiac rhythm ([6]; 4 mg/kg intravenously, 4 dogs): -15 beats per minute
Duration of the hypotension ([6]; 4 mg/kg intravenously, 4 dogs): 60
Diastolic pressure ([6]; 4 mg/kg intravenously, 4 dogs, * p<0.05): -18±5.5
Average pressure ([6]; 4 mg/kg intravenously, 4 dogs): -16±5.4
Systolic pressure ([6]; 4 mg/kg intravenously, 4 dogs): -15±5.3
Alteration in cardiac rhythm ([6]; 8 mg/kg intravenously, 2 dogs): -22 beats per minute
Average pressure ([6]; 8 mg/kg intravenously, 2 dogs): -38
Diastolic pressure ([6]; 8 mg/kg intravenously, 2 dogs): -41
Systolic pressure ([6]; 8 mg/kg intravenously, 2 dogs): -34
Alteration in cardiac rhythm ([6]; 16 mg/kg intravenously, 4 dogs): -37 beats per minute
Duration of the hypotension ([6]; 16 mg/kg intravenously, 4 dogs): > 50
Average pressure [6, 9]: -54±4.3
Systolic pressure [6, 9]: -45±7
Diastolic pressure ([6]; 16 mg/kg intravenously, 4 dogs, *** p<0.001): -57±3.8
biphasic action on the recorded parameters ([6]; different dosages): No biphasic action on the recorded parameters was observed
inhibition in vivo at 16 mg/kg ([7]; 16 mg/kg orally): 16%
inhibition in vivo at 32 mg/kg ([7]; 32 mg/kg orally): 20%
inhibition in vivo at 64 mg/kg ([7]; 64 mg/kg orally): 34%
inhibition in vivo at 128 mg/kg ([7]; 128 mg/kg orally): 45%
inhibition in vivo at 256 mg/kg ([7]; 256 mg/kg orally): 61%
Sum of the counts (stereotypes) ([8]; 8 mg/kg intraperitoneally): 14
Sum of the counts (stereotypes) ([8]; 16 mg/kg intraperitoneally): 18
Sum of the counts (stereotypes) ([8]; 32 mg/kg intraperitoneally): 21
Sum of the counts (stereotypes) ([8]; 64 mg/kg intraperitoneally): 33
Sum of the counts (stereotypes) ([8]; 128 mg/kg intraperitoneally): 43
